Measured values taken from patent US20110224311A1, “Natural Product Sweetness Enhancers” (priority 2009, published 2011).
Values joined by “and” are separate entries in the source; they are usually repeats but may differ in a detail not shown here. Equal entries are not always repeated. “Also recorded” adds a separate entry of the source. Where two headings read alike, the source gives them in different places.

Experiments:
[1] = cited from earlier work
[2] = cited from earlier work; remark: listed apart in the source
[3] = test system: trained judges (expert taste panel); assay: Double-blind sequential monadic sweetness intensity test, sip and spit (Example 1 protocol); assay type: in vivo, human
Source text: Subjects were given three samples to evaluate. Each subject was directed to swirl the first sample in his or her mouth for 3-5 seconds, expectorate the entire sample into a discard cup, and then assess the sweetness intensity of the sample. The intensity was rated on a score card by marking a numerical value along a scale from 0 to 8 (e.g., 0=none, 2=slight, 4=definite, 8=very strong). Following the decision regarding the sweetness intensity, subjects were instructed to rinse their mouth with water and spit in the discard cup. Subjects then were given unsalted crackers to cleanse the palate. A period of 10 minutes elapsed between presentations of each sample to reduce the potential influence of residual taste effects. A second sample was then presented and evaluated as above and the same procedure was followed until all three products were evaluated. Sample presentation was randomized to avoid order of presentation bias. To participate in the sensory panel, judges or subjects were chosen from an expert taste panel. These subjects were screened for taste acuity and were trained in evaluating solutions using the sip and spit protocol and were trained in using a rating ballot. The number of judges who participated in the study was 20. The female subjects were all non-pregnant and all volunteers were of <55 years of age with no history of allergy to sucrose. Judges were asked to execute an informed consent form. Specifically, the following instructions were given to the judges: Please take a sip of water. Carefully take the cap off the sample cup placed in front of you. Sip, swirl for 3-5 seconds, and then spit the sample into the cup provided, then assess the intensity of the sweetness of the sample. Please evaluate the sample for the intensity of the sweet flavor and put a vertical mark on the number that best describes the intensity. Rinse your mouth with the water provided and spit into the discard cup. Use crackers provided to cleanse your palate before evaluating the next sample. If any other flavor was present in the sample please describe it. Please rinse your mouth again several times and have some more water and unsalted crackers. You will now have a rest period of 10 minutes before you will be given the next sample.

[4] = test system: test group having five (5) subjects; assay: Forced-choice taste test of Reb C water solution against water; assay type: in vivo, human; conditions: 250 μM Reb C water solution
Procedure: The taste of a 250 μM Reb C solution was evaluated by a test group having five (5) subjects as follows (Forced-choice): Subjects were presented with 2 cups, each containing 10 ml of either 250 μM Reb C water solution or water (room temperature). […] Subjects were asked to sip most or all of the 10 ml from the first cup, swish the liquid in their oral cavity, and expectorate into a cup, then rinse their mouths vigorously with water. Soon thereafter, the contents of the second cup were sampled in the same manner. Then, subjects were asked to choose the sweeter of the two samples, or if not sweet, to describe the qualitative taste profile of the sample having a detectable taste.

[5] = test system: test group having four (4) subjects; assay: Open qualitative taste report of Reb C water solutions; assay type: in vivo, human; conditions: 250 and 300 μM Reb C in water, subjects 1 to 4
Procedure: The taste of 250 μM and 300 μM Reb C solutions were evaluated as follows by another test group having four (4) subjects as follows: 10 ml solutions of 250 and 300 μM Reb C in water were sampled by four subjects who were asked to report their qualitative taste experience of the solutions. […] The subjects have the following qualitative taste descriptions: […]

10 panelists = assay: Quantitative taste profile by trained panelists (Example 11); assay type: in vivo, human
Procedure: The taste of 150, 300, and 600 μM Reb C was evaluated by a test group. 10 panelists were trained over a period of a few weeks to provide a quantitative flavor profile of Reb C. Panelists first were trained using standard tastants representing the different taste modalities given in FIG. 10 (i.e., sweet, bitter, salt, sour, and licorice). They then were trained to use the scales when flavors were mixed together. All intensity ratings are on scales ranging from 0 (no taste) to 8 (highest intensity). The intensity rating for sweet is essentially the same as used in Examples 1 and 6. The taste profiles were obtained for 150, 300, and 600 μM Reb C. Reb A (0.2 mg/ml, a concentration used in some food/beverage applications for sweetening) was also evaluated in the test for comparison. The scale is not linear at the bottom. A rating of 1 is around the threshold for sweetness detection.

[6] = test system: trained judges (expert taste panel); assay: Double-blind sequential monadic sweetness intensity test, taste and swallow (Example 6 protocol), beverages and solutions; assay type: in vivo, human; conditions: for intrinsic sweetness in unsweetened beverage: Reb C at 190 ppm or below (95, 190, 285 ppm tested)
[7] = 5% (w/v-%) fructose solution + 300 μM enhancer, versus 7% (w/v-%) fructose
[8] = 5% (w/v-%) sucrose solution + 300 μM enhancer, versus 7% (w/v-%) sucrose, scale 0 to 8
[9] = 8% (w/v-%) sucrose solution + 300 μM enhancer, versus 11% (w/v-%) sucrose

For `C=C1C[C@@]23CC[C@H]4[C@@](C)(CCC[C@@]4(C)C(=O)O[C@@H]4O[C@H](CO)[C@@H](O)[C@H](O)[C@H]4O)[C@@H]2CC[C@]1(O[C@@H]1O[C@H](CO)[C@@H](O)[C@H](O[C@@H]2O[C@H](CO)[C@@H](O)[C@H](O)[C@H]2O)[C@H]1O[C@@H]1O[C@H](CO)[C@@H](O)[C@H](O)[C@H]1O)C3` [rebaudioside A], the “effect in mixtures with other sweeteners” value ([1]; mixture with sucrose, sweetness intensity equivalent to 7% (w/v-%) sucrose) is listed as “additive effect”, the “effect in mixtures with other sweeteners” value ([1]; mixtures with fructose and glucose, sweetness intensity equivalent to 3% (w/v-%) sucrose) is listed as “additive effect” and the “effect in mixtures with other sweeteners” value ([1]; mixtures with fructose, glucose and sucrose, sweetness intensity equivalent to 5% (w/v-%) sucrose) is listed as “additive effect”. For the same compound, the “effect in mixtures with other sweeteners” value ([1]; mixtures with glucose and fructose, sweetness intensity equivalent to 7% (w/v-%) sucrose) was “suppressive effect”, the “effect in mixtures with other sweeteners” value ([1]; mixtures with sucrose, sweetness intensity equivalent to 3% (w/v-%) sucrose) was “synergistic effect” and the “aftertaste among the diterpene glycosides of Stevia extracts” value ([2]; bitter and licorice-like aftertaste) was “least aftertaste”.

For `C=C1C[C@@]23CC[C@H]4[C@@](C)(CCC[C@@]4(C)C(=O)O[C@@H]4O[C@H](CO)[C@@H](O)[C@H](O)[C@H]4O)[C@@H]2CC[C@]1(O[C@@H]1O[C@H](CO)[C@@H](O)[C@H](O)[C@H]1O[C@@H]1O[C@@H](C)[C@H](O)[C@@H](O)[C@H]1O)C3` [Dulc A, dulcoside A], the “sweetness relative to sucrose” value ([2]; known values, background) is given as 30 times sweeter than sucrose, the “sweetness of sweetener solution with enhancer compared with higher sweetener concentration” value [3, 7] is given as “achieved that of a 7% (w/v-%) fructose solution; also recorded: acts synergistically” and the “sweetness of sweetener solution with enhancer compared with higher sweetener concentration” value [3, 8] is given as “achieved that of a 7% (w/v-%) sucrose solution; also recorded: acts synergistically”. For the same compound, the “sweetness of sweetener solution with enhancer compared with higher sweetener concentration” value [3, 9] was “approached that of an 11% (w/v-%) sucrose solution; also recorded: acts synergistically”, the off-tastes ([3]; 8% (w/v-%) sucrose solution with 300 μM Dulc A) was “No off-tastes were detected” and the “mean sweetness intensity score” value ([3]; 8% (w/v-%) sucrose solution with 300 μM Dulc A, scale 0 to 8) was 6.3.

In the case of `OC[C@H]1O[C@@](CO)(O[C@H]2O[C@H](CO)[C@@H](O)[C@H](O)[C@H]2O)[C@@H](O)[C@@H]1O` [sucrose, α-D-glucopyranosyl-(1→2)-β-D-fructofuranose, reference compound], the “mean sweetness intensity score” value ([3]; 8% (w/v-%) sucrose solution alone (low-concentration comparator), scale 0 to 8) is reported as 5.30 and 5.0 and the “mean sweetness intensity score” value ([3]; 11% (w/v-%) sucrose solution alone (high-concentration comparator), scale 0 to 8) is reported as 6.95 and 6.7.

With `C=C1CC23CCC4C(C)(C(=O)OC5OC(CO)C(O)C(O)C5O)CCCC4(C)C2CCC1(OC1OC(CO)C(O)C(OC2OC(CO)C(O)C(O)C2O)C1OC1OC(C)C(O)C(O)C1O)C3` (stereo not drawn) [Reb C, rebaudioside C] the “identification of the sample against water (forced-choice)” value ([4]; 10 ml, room temperature, five subjects) was “All subjects correctly identified the sample containing Reb C”, the “qualitative taste description (one per subject)” value ([4]; subjects 1 to 5) was “Metallic, not sweet; also recorded: Aversive (“Nasty”); also recorded: Slight sweet, astringent; also recorded: Faintly sweet; also recorded: Slight sweet/licorice” and the “qualitative taste description (one per subject)” value [5] was “bitter and/or licorice”. For the same compound, the “unpleasant tastes, bitter and licorice” value (10 panelists; 150, 300 and 600 μM Reb C alone) was “barely detected”, the intrinsic sweetness (10 panelists; 150, 300 and 600 μM Reb C, scale 0 to 8) was “little or no intrinsic sweetness” and the “unpleasant tastes, bitter and licorice” value (10 panelists; Reb C combined with sugar) was “undetected”. The “sweetness of sweetener solution with enhancer compared with higher sweetener concentration” value ([6]; 7.14% w/v erythritol water solution + 285 ppm (300 μM) Reb C, versus 7.14% and 10% erythritol) was “significantly sweeter than the 7.14% erythritol solution alone, but did not achieve the sweetness of a 10% erythritol solution; also recorded: acts synergistically”, the “statistical significance of the sweetness enhancing effect” value ([6]; 8% (w/v-%) fructose solution + 300 μM Reb C) was “not statistically significant” and the “sweetness of sweetener solution with enhancer compared with higher sweetener concentration” value ([6]; 8% (w/v-%) fructose solution + 300 μM Reb C, versus 8% and 11% fructose) was “between that of the 8% (w/v-%) fructose solution and that of an 11% (w/v-%) fructose solution”. For the same compound, the “sweetness of beverage with enhancer compared with higher sweetener concentration” value ([6]; cola beverage buffered with citric acid, 10.39% (w/v-%) HFCS55 + 190 ppm Reb C, versus 14.29% HFCS55) was “significantly increases the sweetness intensity to that of 14.29% HFCS55; also recorded: synergistically enhanced”, the “sweetness of beverage with enhancer compared with beverage alone” value ([6]; cola beverage buffered with phosphoric acid, 10.39% (w/v-%) HFCS55 + 190 ppm Reb C) was “is not higher than that of 10.39% (w/v-%) HFCS55 cola beverage alone” and the “sweetness of beverage with enhancer compared with higher sweetener concentration” value ([6]; cola beverage buffered with phosphoric acid, 10.39% (w/v-%) HFCS55 + 310 ppm Reb C, versus 14.29% HFCS55) was “increased significantly the sweetness intensity of a cola beverage containing 10.39% (w/v-%) HFCS55, but did not reach the sweetness of a 14.29% (w/v-%) HFCS55 cola beverage; also recorded: enhances the sweetness intensity”. For the same compound, the “sweetness of beverage with enhancer compared with higher sweetener concentration” value ([6]; iced tea, 8% (w/v-%) sucrose + 300 μM Reb C, versus 8% and 11% sucrose) was “between that of the 8% (w/v-%) solution and that of an 11% (w/v-%) sucrose solution; also recorded: enhances the sweetness intensity”, the “sweetness of beverage with enhancer compared with higher sweetener concentration” value ([6]; iced tea, 10.39% (w/v-%) HFCS55 + 300 μM Reb C, versus 14.29% HFCS55) was “indistinguishable from that of a 14.29% (w/v-%) HFCS55 (HFCS) solution; also recorded: acts synergistically” and the “sweetness of beverage with enhancer compared with higher sweetener concentration” value ([6]; lemon-lime soda (citric acid), 10.39% (w/v-%) HFCS55 + 190 ppm Reb C, versus 14.29% HFCS55) was “did not reach the sweetness of a 14.29% (w/v-%) HFCS55 solution; also recorded: synergistically enhanced”. For the same compound, the “intrinsic sweetness in unsweetened beverage” value ([6]; unsweetened cola beverage) was “does not increase the sweetness of an unsweetened cola beverage”, the “intrinsic sweetness in unsweetened beverage” value ([6]; unsweetened lemon-lime soda (FIG. 16)) was “does not increase the sweetness of an unsweetened cola beverage” and the “sweetness of sweetener solution with enhancer compared with higher sweetener concentration” value [3, 7] was “close to that of a 7% (w/v-%) fructose solution; also recorded: acts synergistically”. For the same compound, the “sweetness of sweetener solution with enhancer compared with higher sweetener concentration” value [3, 8] was “indistinguishable from that of a 7% (w/v-%) sucrose solution; also recorded: acts synergistically”, the “sweetness of sweetener solution with enhancer compared with higher sweetener concentration” value ([3]; 8% (w/v-%) sucrose solution + 150 μM Reb C, versus 8% and 11% (w/v-%) sucrose) was “between that of the 8% (w/v-%) sucrose solution and that of an 11% (w/v-%) sucrose solution; also recorded: significantly enhanced” and the “sweetness of sweetener solution with enhancer compared with higher sweetener concentration” value [3, 9] was “close to that of an 11% (w/v-%) sucrose solution; also recorded: significantly enhanced”. The “mean sweetness intensity score” value ([3]; 8% (w/v-%) sucrose solution with 150 μM Reb C, scale 0 to 8) was 6.10.
